Laboratory results published in patent publication US4032659A (priority 1975, dated 1977).
“Also recorded” adds a separate entry of the source. Read-outs that look alike come from different tables or passages of the source.

Assays:
[1] = test system: Influenza Ann Arbor virus; experiment: Chemoprophylaxis of Influenza Ann Arbor (A1) virus infection in mice; assay type: in vivo, mouse
Herpes virus [2] = experiment: Herpes virus in eggs (chick embryo survival); assay type: in vivo, chicken eggs; conditions: for Deaths on day 1 / Deaths on day 2 / Deaths on day 3 / Total Deaths 4th Day / Deaths on day 4: 12 eggs
Herpes virus [3] = assay type: in vivo, mouse
Vaccinia virus [4] = assay type: cell-based, fertile eggs; conditions: various concentrations
[5] = test system: Influenza B Massachusetts virus; experiment: Chemoprophylaxis of Influenza B Massachusetts virus infection in mice; assay type: in vivo, mouse; conditions: oral
Method: The activity of four compounds on Influenza B Mass. was tested in mice.
A portion of a commercially available sample of amantadine was recrystallized from isopropanol. The activity of the material against Influenza B Mass. was tested for the sample as obtained, the recrystallized portion, and the mother liquor obtained from recrystallizing the portion.

Influenza PR 8 virus = experiment: Chemoprophylaxis of Influenza PR 8 virus infection in mice; assay type: in vivo, mouse
Influenza A PR8 virus = test system: Influenza A PR8 virus; set-up: dose or concentration left out as unconfirmed; conditions: cited from earlier work
Columbia SK Polio virus = conditions: mouse, in vivo
Vaccinia virus [6] = assay type: in vivo; conditions: scarified rabbit skin
virus infections = experiment: Antiviral screening program, several viruses; conditions: mouse, in vivo
pox virus = experiment: Pox virus infections of mice; conditions: mouse, in vivo
[7] = test system: Influenza B Maryland virus; experiment: Chemoprophylaxis of Influenza B Maryland virus infection in mice; assay type: in vivo, mouse; conditions: for No. animals surviving when 18/20 of controls are dead / Survivors: oral
[8] = subcutaneous, total dose .0005 μg

SMILES: NNC(N)=O [semicarbazide]
- total number of survivors ([1]; oral, four dose levels): 10
- Survivors ([1]; subcutaneous, total dose .05 μg): 0
- No. Living Longer Than Controls, total (Herpes virus [2]; all doses): 10
- Survivors (Herpes virus [3]; oral, total dose .000005 μg): 0
- Survivors (Herpes virus [3]; oral, total dose .5 μg): 0
- effect on pox formation on the membrane (Vaccinia virus [4]): No effect on pox formation on the membrane could be observed
- No. animals surviving when 100% controls are dead ([5]; total dose .000005 μg): 0
- Survivors ([5]; total dose .000005 μg): 0
- No. animals surviving when 100% controls are dead ([5]; total dose .00005 μg): 0
- Survivors ([5]; total dose .00005 μg): 0
- No. animals surviving when 100% controls are dead ([5]; total dose .0005 μg): 1
- Survivors ([5]; total dose .0005 μg): 0
- No. animals surviving after 5 days ([5]; total dose .005 μg): 6
- Survivors ([5]; total dose .005 μg): 0
- No. animals surviving after 5 days ([5]; total dose .05 μg): 6
- No. animals surviving when 100% controls are dead ([5]; total dose .05 μg): 1
- Survivors ([5]; total dose .05 μg): 0
- No. animals surviving after 5 days ([5]; total dose .5 μg): 4
- No. animals surviving when 100% controls are dead ([5]; total dose .5 μg): 1
- Survivors ([5]; total dose .5 μg): 0
- Survivors (Influenza PR 8 virus; oral, total dose .000005 μg): 0
- No. animals surviving when 18/20 of controls are dead (Influenza PR 8 virus; oral, total dose .00005 μg): 0
- Survivors (Influenza PR 8 virus; oral, total dose .00005 μg): 0
- No. animals surviving when 18/20 of controls are dead (Influenza PR 8 virus; oral, total dose .0005 μg): 0
- Survivors (Influenza PR 8 virus; oral, total dose .0005 μg): 0
- No. animals surviving when 18/20 of controls are dead (Influenza PR 8 virus; oral, total dose .005 μg): 0
- Survivors (Influenza PR 8 virus; oral, total dose .005 μg): 0
- No. animals surviving when 18/20 of controls are dead (Influenza PR 8 virus; oral, total dose .05 μg): 4
- Survivors (Influenza PR 8 virus; oral, total dose .05 μg): 4

SMILES: CC(C=NNC(=N)N)=NNC(=N)N [methyl-GAG, Methylgloxal-bis-guanylhydrazone]
- inhibition (Influenza A PR8 virus; lower limit): Ninety
- Toxicity (Influenza A PR8 virus; upper limit): toxic

SMILES: CCC(C)=NNC(N)=S [thiosemicarbazone]
- statistically significant geometric mean survival time (Columbia SK Polio virus): two instances of a statistically significant geometric mean survival time
- effect on pox formation (Vaccinia virus [6]): dramatic reduction and even elimination of all pox formation over several dilutions; also recorded: highly significant diminution of pox formation
- protection against death (Influenza PR 8 virus; drinking water 24 h pre- and 24 h post-infection): significantly protected against death

SMILES: CCC(C)=NNC(N)=S [2-Butanone, thiosemicarbazone, 2-butanone, thiosemicarbazone]
- No. Hatched, total (Herpes virus [2]; all doses): 5
- No. Living Longer Than Controls, total (Herpes virus [2]; all doses): 12
- Deaths on day 1 (Herpes virus [2]; dose 2 μg): 1
- Deaths on day 2 (Herpes virus [2]; dose 2 μg): 5
- Deaths on day 3 (Herpes virus [2]; dose 2 μg): 3
- Total Deaths 4th Day (Herpes virus [2]; dose 2 μg): 9
- Deaths on day 2 (Herpes virus [2]; dose 20 μg): 5
- Deaths on day 3 (Herpes virus [2]; dose 20 μg): 1
- Deaths on day 4 (Herpes virus [2]; dose 20 μg): 2
- Total Deaths 4th Day (Herpes virus [2]; dose 20 μg): 8
- Deaths on day 1 (Herpes virus [2]; dose .00005 μg): 2
- Deaths on day 2 (Herpes virus [2]; dose .00005 μg): 4
- Deaths on day 3 (Herpes virus [2]; dose .00005 μg): 5
- Total Deaths 4th Day (Herpes virus [2]; dose .00005 μg): 11
- Deaths on day 1 (Herpes virus [2]; dose .0005 μg): 1
- Deaths on day 2 (Herpes virus [2]; dose .0005 μg): 5
- Deaths on day 3 (Herpes virus [2]; dose .0005 μg): 3
- Deaths on day 4 (Herpes virus [2]; dose .0005 μg): 1
- Total Deaths 4th Day (Herpes virus [2]; dose .0005 μg): 10
- Deaths on day 1 (Herpes virus [2]; dose .005 μg): 2
- Deaths on day 2 (Herpes virus [2]; dose .005 μg): 4
- Deaths on day 3 (Herpes virus [2]; dose .005 μg): 2
- Deaths on day 4 (Herpes virus [2]; dose .005 μg): 3
- Total Deaths 4th Day (Herpes virus [2]; dose .005 μg): 11
- Deaths on day 1 (Herpes virus [2]; dose .05 μg): 2
- Deaths on day 2 (Herpes virus [2]; dose .05 μg): 6
- Deaths on day 3 (Herpes virus [2]; dose .05 μg): 3
- Total Deaths 4th Day (Herpes virus [2]; dose .05 μg): 11
- Deaths on day 1 (Herpes virus [2]; dose .5 μg): 1
- Deaths on day 2 (Herpes virus [2]; dose .5 μg): 3
- Deaths on day 3 (Herpes virus [2]; dose .5 μg): 6
- Deaths on day 4 (Herpes virus [2]; dose .5 μg): 2
- Total Deaths 4th Day (Herpes virus [2]; dose .5 μg): 12
- activity (in words) (virus infections): one of the most active compounds that has been studied to date
- No. animals surviving when 17/20 controls are dead (Herpes virus [3]; oral, total dose .000005 μg): 0
- Survivors (Herpes virus [3]; oral, total dose .000005 μg): 0
- No. animals surviving when 17/20 controls are dead (Herpes virus [3]; oral, total dose .00005 μg): 4
- No. animals surviving when 17/20 controls are dead (Herpes virus [3]; oral, total dose .0005 μg): 5
- Survivors (Herpes virus [3]; oral, total dose .0005 μg): 4
- No. animals surviving when 17/20 controls are dead (Herpes virus [3]; oral, total dose .05 μg): 0
- Survivors (Herpes virus [3]; oral, total dose .05 μg): 0
- No. animals surviving after 5 days ([5]; total dose .000005 μg): 6
- No. animals surviving when 100% controls are dead ([5]; total dose .000005 μg): 3
- Survivors ([5]; total dose .000005 μg): 2
- No. animals surviving after 5 days ([5]; total dose .00005 μg): 8
- No. animals surviving when 100% controls are dead ([5]; total dose .00005 μg): 3
- Survivors ([5]; total dose .00005 μg): 2
- No. animals surviving after 5 days ([5]; total dose .0005 μg): 7
- No. animals surviving when 100% controls are dead ([5]; total dose .0005 μg): 1
- Survivors ([5]; total dose .0005 μg): 0
- No. animals surviving after 5 days ([5]; total dose .005 μg): 4
- No. animals surviving when 100% controls are dead ([5]; total dose .005 μg): 0
- Survivors ([5]; total dose .005 μg): 0
- No. animals surviving after 5 days ([5]; total dose .05 μg): 4
- No. animals surviving when 100% controls are dead ([5]; total dose .05 μg): 2
- Survivors ([5]; total dose .05 μg): 0
- No. animals surviving after 5 days ([5]; total dose .5 μg): 5
- No. animals surviving when 100% controls are dead ([5]; total dose .5 μg): 4
- Survivors ([5]; total dose .5 μg): 1
- effect on pox formation (Vaccinia virus [6]): variable
- Survivors (Influenza PR 8 virus; drinking water 24 h post-infection only, first printed value (concentration column unclear)): 0
- Survivors (Influenza PR 8 virus; drinking water 24 h pre- and 24 h post-infection, 0.5 mg/ml): 1
- No. animals surviving after 6 days (Influenza PR 8 virus; oral, total dose .000005 μg): 6
- No. animals surviving after 7 days (Influenza PR 8 virus; oral, total dose .000005 μg): 4
- No. animals surviving after 6 days (Influenza PR 8 virus; oral, total dose .00005 μg): 5
- No. animals surviving after 7 days (Influenza PR 8 virus; oral, total dose .00005 μg): 8
- No. animals surviving when 19/20 of controls are dead (Influenza PR 8 virus; oral, total dose .00005 μg): 4
- Survivors (Influenza PR 8 virus; oral, total dose .00005 μg): 4
- No. animals surviving when 19/20 of controls are dead (Influenza PR 8 virus; oral, total dose .0005 μg): 1
- Survivors (Influenza PR 8 virus; oral, total dose .0005 μg): 1
- No. animals surviving when 19/20 of controls are dead (Influenza PR 8 virus; oral, total dose .005 μg): 0
- Survivors (Influenza PR 8 virus; subcutaneous, total dose .000005 μg): 0
- Survivors (Influenza PR 8 virus; subcutaneous, total dose .00005 μg): 0
- No. animals surviving after 6 days (Influenza PR 8 virus; [8]): 1
- Survivors (Influenza PR 8 virus; [8]): 1
- Survivors (Influenza PR 8 virus; subcutaneous, total dose .005 μg): 0

SMILES: CN1C(=O)/C(=N\NC(N)=S)c2ccccc21 [Methisazone, 1-methylindole-2,3-dione,3-thiosemicarbazone, reference compound]
- No. animals surviving after 5 days ([1]; oral, total dose 5 μg): 4
- Survivors ([1]; oral, total dose 5 μg): 0
- No. animals surviving after 5 days ([1]; oral, total dose 50 μg): 3
- Survivors ([1]; oral, total dose 50 μg): 0
- No. animals surviving after 5 days ([1]; oral, total dose .00005 μg): 6
- Survivors ([1]; oral, total dose .00005 μg): 0
- No. animals surviving after 5 days ([1]; oral, total dose .0005 μg): 5
- Survivors ([1]; oral, total dose .0005 μg): 0
- No. animals surviving after 5 days ([1]; oral, total dose .005 μg): 5
- Survivors ([1]; oral, total dose .005 μg): 0
- No. animals surviving after 5 days ([1]; oral, total dose .05 μg): 4
- Survivors ([1]; oral, total dose .05 μg): 0
- No. animals surviving after 5 days ([1]; oral, total dose .5 μg): 6
- Survivors ([1]; oral, total dose .5 μg): 0
- activity (pox virus): active against pox virus infections of mice
- activity (in words) (virus infections): found to have activity
- No. animals surviving after 6 days (Herpes virus [3]; mouse, in vivo, po): 1
- No. animals surviving after 6 days (Herpes virus [3]; oral, total dose .00005 μg): 0
- No. animals surviving after 6 days (Herpes virus [3]; oral, total dose .0005 μg): 0
- No. animals surviving after 6 days (Herpes virus [3]; oral, total dose .005 μg): 0
- Survivors (Herpes virus [3]; oral, total dose .05 μg): 0
- activity ([7]; mouse, in vivo): active against Influenza B Maryland virus
- No. animals surviving when 18/20 of controls are dead ([7]; total dose 6 ng): 4
- Survivors ([7]; total dose 6 ng): 2
- No. animals surviving when 18/20 of controls are dead ([7]; total dose 60 ng): 4
- Survivors ([7]; total dose 60 ng): 2
- No. animals surviving when 18/20 of controls are dead ([7]; total dose 600 ng): 2
- Survivors ([7]; total dose 600 ng): 2
- No. animals surviving when 18/20 of controls are dead ([7]; total dose 6 μg): 4
- Survivors ([7]; total dose 6 μg): 1
